The test system of the experiment is NL-RLuc virus. Nature of the experiment: Inhibition of HIV replication (NL-RLuc luciferase reporter virus in MT-2 cells). Format: cell-based. The conditions noted are these: Human immunodeficiency virus 1, MT2, 120 h. The text has this:
Inhibition of HIV Replication:
A recombinant NL-RLuc proviral clone was constructed in which a section of the nef gene from NL4-3 was replaced with the Renilla Luciferase gene. This virus is fully infectious and can undergo multiple cycles of replication in cell culture. In addition, the luciferous reporter provides a simple and easy method for quantitating the extent of virus growth and consequently, the antiviral activity of test compounds. The plasmid pNLRLuc contains the proviral NL-Rluc DNA cloned into pUC 18 at the PvuII site. The NL-RLuc virus was prepared by transfection of 293T cells with the plasmid pNLRLuc. Transfections were performed using the LipofectAMINE PLUS kit from Invitrogen (Carlsbad, Calif.) according to the manufacturer and the virus generated was titered in MT-2 cells. For susceptibility analyses, the titrated virus was used to infect MT-2 cells in the presence of compound, and after 5 days of incubation, cells were processed and quantitated for virus growth by the amount of expressed luciferase. Assay media was RPMI 1640 supplemented with 10% heat inactivated fetal bovine serum (FBS), 100 units/ml penicillin G/100 units/ml streptomycin, 10 mM HEPES buffer pH 7.55 and 2 mM L-glutamine. The results from at least 2 experiments were used to calculate the EC50 values. Luciferase was quantitated using the Dual Luciferase kit from Promega (Madison, Wis.). Susceptibility of viruses to compounds was determined by incubation in the presence of serial dilutions of the compound. The 50% effective concentration (EC50) was calculated by using the exponential form of the median effect equation where (Fa)=1/[1+(ED50/drug conc.)^m](Johnson V A, Byington R T. Infectivity Assay. In Techniques in HIV Research. ed. Aldovini A, Walker B D. 71-76. New York: Stockton Press.1990). Activity equal to A refers to a compound having an EC50≤100 nM, while B and C denote compounds having an EC50 between 100 nM and 1 uM (B) or >1 uM (C).

Where two headings read alike, the source gives them in different places.

Turning to `Cc1nc(C)c([C@H](OC(C)(C)C)C(=O)O)c(N2CCC3(CCOC3)CC2)c1-c1ccc(OCCc2ccc(F)cc2)cc1` [Example 67, (S)-2-(tert-Butoxy)-2-(5-(4-(4-fluorophenethoxy)phenyl)-2,6-dimethyl-4-(2-oxa-8-azaspiro[4.5]decan-8-yl)pyridin-3-yl)acetic acid], the EC50 (read-out: Activity) is less than 0.1 µM. Still for that read-out and setting: then `Cc1nc(CN2CCOCC2)c(-c2ccc(OCCc3ccc(F)cc3)cc2)c(N2CCC3(CCC3)CC2)c1[C@H](OC(C)(C)C)C(=O)O` [Example 54, (S)-2-(tert-Butoxy)-2-(5-(4-(4-fluorophenethoxy)phenyl)-2-methyl-6-(morpholinomethyl)-4-(7-azaspiro[3.5]nonan-7-yl)pyridin-3-yl)acetic acid], with less than 0.1 µM; and `Cc1nc(CNCC2CCOCC2)c(-c2ccc(OCCc3ccc(F)cc3)cc2)c(N2CCC3(CCC3)CC2)c1[C@H](OC(C)(C)C)C(=O)O` [Example 45, (S)-2-(tert-Butoxy)-2-(5-(4-(4-fluorophenethoxy)phenyl)-2-methyl-4-(7-azaspiro[3.5]nonan-7-yl)-6-((((tetrahydro-2H-pyran-4-yl)methyl)amino)methyl)pyridin-3-yl)acetic acid], with less than 0.1 µM; and `Cc1nc(C)c([C@H](OC(C)(C)C)C(=O)O)c(N2CCC3(CCC3)CC2)c1-c1ccc2c(c1)CCN(Cc1ccccc1F)C2` [Example 33, (S)-2-(tert-Butoxy)-2-(5-(2-(2-fluorobenzyl)-1,2,3,4-tetrahydroisoquinolin-6-yl)-2,6-dimethyl-4-(7-azaspiro[3.5]nonan-7-yl)pyridin-3-yl)acetic acid], with less than 0.1 µM. Still for that read-out and setting: the value for `Cc1nc(C)c([C@H](OC(C)(C)C)C(=O)O)c(N2CC[C@H]3CCCC[C@@H]3C2)c1-c1ccc(C(=O)NCc2ccccc2)cc1` [Example 13, (S)-2-(5-(4-(Benzylcarbamoyl)phenyl)-2,6-dimethyl-4-((4aR,8aS)-octahydroisoquinolin-2(1H)-yl)pyridin-3-yl)-2-(tert-butoxy)acetic acid] was less than 0.1 µM; that for `CCOCc1nc(C)c([C@H](OC(C)(C)C)C(=O)O)c(N2CCC3(CCC3)CC2)c1-c1ccc(OCCc2ccc(F)cc2)cc1` [Example 41, (S)-2-(tert-Butoxy)-2-(6-(ethoxymethyl)-5-(4-(4-fluorophenethoxy)phenyl)-2-methyl-4-(7-azaspiro[3.5]nonan-7-yl)pyridin-3-yl)acetic acid] was less than 0.1 µM.

For `COCCNCc1nc(C)c([C@H](OC(C)(C)C)C(=O)O)c(N2CCC3(CCC3)CC2)c1-c1ccc(OCCc2ccc(F)cc2)cc1` [Example 42, (S)-2-(tert-Butoxy)-2-(5-(4-(4-fluorophenethoxy)phenyl)-6-(((2-methoxyethyl)amino)methyl)-2-methyl-4-(7-azaspiro[3.5]nonan-7-yl)pyridin-3-yl)acetic acid], the EC50 is less than 0.1 µM (read-out: Activity) and 0.002 µM (read-out: EC50 μM).

Turning to `Cc1nc(C)c([C@H](OC(C)(C)C)C(=O)O)c(N2CCC3(CCCC3)CC2)c1-c1ccc(C(=O)NCc2ccccc2)c(F)c1` [Example 24, (S)-2-(5-(4-(Benzylcarbamoyl)-3-fluorophenyl)-2,6-dimethyl-4-(8-azaspiro[4.5]decan-8-yl)pyridin-3-yl)-2-(tert-butoxy)acetic acid], the EC50 (read-out: Activity) was less than 0.1 µM. On the same count and under the same terms, the value for `Cc1nc(CO)c(-c2ccc(OCCc3ccc(F)cc3)cc2)c(N2CCC3(CCC3)CC2)c1[C@H](OC(C)(C)C)C(=O)O` [Example 38, (S)-2-(tert-Butoxy)-2-(5-(4-(4-fluorophenethoxy)phenyl)-6-(hydroxymethyl)-2-methyl-4-(7-azaspiro[3.5]nonan-7-yl)pyridin-3-yl)acetic acid] was less than 0.1 µM; that for `Cc1nc(C)c([C@H](OC(C)(C)C)C(=O)O)c(N2CC[C@H]3CCCC[C@@H]3C2)c1-c1ccc(OCCc2ccc(F)cc2)cc1` [Example 12, (S)-2-(tert-Butoxy)-2-(5-(4-(4-fluorophenethoxy)phenyl)-2,6-dimethyl-4-((4aR,8aS)-octahydroisoquinolin-2(H)-yl)pyridin-3-yl)acetic acid] was less than 0.1 µM. Take `Cc1nc(C)c([C@H](OC(C)(C)C)C(=O)O)c(N2CCC3(CC2)CC3)c1-c1ccc(OCCc2ccc(F)cc2)cc1` [Example 16, (S)-2-(tert-Butoxy)-2-(5-(4-(4-fluorophenethoxy)phenyl)-2,6-dimethyl-4-(6-azaspiro[2.5]octan-6-yl)pyridin-3-yl)acetic acid]: the EC50 reads like this: (read-out: Activity) less than 0.1 µM; (read-out: EC50 μM) 0.003 µM. As to `Cc1nc(C)c([C@H](OC(C)(C)C)C(=O)O)c(N2CCC3(CCCC3)C2)c1-c1ccc(OCCc2ccc(F)cc2)cc1` [Example 14, (S)-2-(tert-Butoxy)-2-(5-(4-(4-fluorophenethoxy)phenyl)-2,6-dimethyl-4-(2-azaspiro[4.4]nonan-2-yl)pyridin-3-yl)acetic acid], the EC50 (read-out: Activity) was less than 0.1 µM. On the same count and under the same terms, the value for `Cc1nc(CN2CCCCC2)c(-c2ccc(OCCc3ccc(F)cc3)cc2)c(N2CCC3(CCC3)CC2)c1[C@H](OC(C)(C)C)C(=O)O` [Example 53, (S)-2-(tert-Butoxy)-2-(5-(4-(4-fluorophenethoxy)phenyl)-2-methyl-6-(piperidin-1-ylmethyl)-4-(7-azaspiro[3.5]nonan-7-yl)pyridin-3-yl)acetic acid] was less than 0.1 µM; that for `Cc1nc(C)c([C@H](OC(C)(C)C)C(=O)O)c(N2CCC3(CC2)CC3(F)F)c1-c1ccc(OCCc2ccc(F)cc2)cc1` [Example 70, (S)-2-(tert-Butoxy)-2-(4-(1,1-difluoro-6-azaspiro[2.5]octan-6-yl)-5-(4-(4-fluorophenethoxy)phenyl)-2,6-dimethylpyridin-3-yl)acetic acid] was less than 0.1 µM.

For the molecule `Cc1nc(CO)c([C@H](OC(C)(C)C)C(=O)O)c(N2CCC3(CCC3)CC2)c1-c1ccc(OCCc2ccc(F)cc2)cc1` [Example 39, (S)-2-(tert-Butoxy)-2-(5-(4-(4-fluorophenethoxy)phenyl)-2-(hydroxymethyl)-6-methyl-4-(7-azaspiro[3.5]nonan-7-yl)pyridin-3-yl)acetic acid], the EC50 (read-out: Activity) was less than 0.1 µM.

Regarding `Cc1nc(C)c([C@H](OC(C)(C)C)C(=O)O)c(N2CC[C@H]3CCCC[C@H]3C2)c1-c1ccc(C(=O)NCc2ccccc2)cc1` [Example 11, (S)-2-(5-(4-(Benzylcarbamoyl)phenyl)-2,6-dimethyl-4-((4aR,8aR)-octahydroisoquinolin-2(1H)-yl)pyridin-3-yl)-2-(tert-butoxy)acetic acid], the EC50 (read-out: Activity) was less than 0.1 µM. Take `Cc1nc(C)c([C@H](OC(C)(C)C)C(=O)O)c(N2CC3CCC2C3)c1-c1ccc(C(=O)NCc2ccccc2)cc1` (stereo partly drawn) [Example 1, (S)-2-(5-(4-(Benzylcarbamoyl)phenyl)-4-(2-azabicyclo[2.2.1]heptan-2-yl)-2,6-dimethylpyridin-3-yl)-2-(tert-butoxy)acetic acid]: the EC50 was 0.1 to 1 µM (read-out: Activity) and 0.446 µM (read-out: EC50 μM). Turning to `Cc1nc(C)c([C@H](OC(C)(C)C)C(=O)O)c(N2CCC3(CCCCC3)CC2)c1-c1ccc(OCCc2ccc(F)cc2)cc1` [Example 60, (S)-2-(tert-Butoxy)-2-(5-(4-(4-fluorophenethoxy)phenyl)-2,6-dimethyl-4-(3-azaspiro[5.5]undecan-3-yl)pyridin-3-yl)acetic acid], the EC50 (read-out: Activity) was less than 0.1 µM.

Turning to `Cc1nc(C)c([C@H](OC(C)(C)C)C(=O)O)c(N2CCC3(CCCC3)CC2)c1-c1ccc(OCC(C)(C)c2ccc(F)cc2)cc1` [Example 22, (S)-2-(tert-Butoxy)-2-(5-(4-(2-(4-fluorophenyl)-2-methylpropoxy)phenyl)-2,6-dimethyl-4-(8-azaspiro[4.5]decan-8-yl)pyridin-3-yl)acetic acid], the EC50 (read-out: Activity) was less than 0.1 µM and the EC50 (read-out: EC50 μM) stood at 0.026 µM. The corresponding values for `Cc1nc(C)c([C@H](OC(C)(C)C)C(=O)O)c(N2CC3C(C2)C3(C)C)c1-c1ccc(C(=O)NCc2ccccc2)cc1` (stereo partly drawn) [Example 9, (2S)-2-(5-(4-(Benzylcarbamoyl)phenyl)-4-(6,6-dimethyl-3-azabicyclo[3.1.0]hexan-3-yl)-2,6-dimethylpyridin-3-yl)-2-(tert-butoxy)acetic acid] are less than 0.1 µM and 0.083 µM. In the case of `Cc1nc(CN(C)CC2CCOCC2)c(-c2ccc(OCCc3ccc(F)cc3)cc2)c(N2CCC3(CCC3)CC2)c1[C@H](OC(C)(C)C)C(=O)O` [Example 46, (S)-2-(tert-Butoxy)-2-(5-(4-(4-fluorophenethoxy)phenyl)-2-methyl-6-((methyl((tetrahydro-2H-pyran-4-yl)methyl)amino)methyl)-4-(7-azaspiro[3.5]nonan-7-yl)pyridin-3-yl)acetic acid], the EC50 (read-out: Activity) is less than 0.1 µM. On the same count and under the same terms, then `Cc1nc(C)c([C@H](OC(C)(C)C)C(=O)O)c(N2CCCC3(CCCC3)C2)c1-c1ccc(C(=O)NCc2ccccc2)cc1` [Example 19, (S)-2-(5-(4-(Benzylcarbamoyl)phenyl)-2,6-dimethyl-4-(7-azaspiro[4.5]decan-7-yl)pyridin-3-yl)-2-(tert-butoxy)acetic acid], with 0.1 to 1 µM.
